Data taken from patent publication US9333202B2, “Non-retinoid antagonists for treatment of age-related macular degeneration and stargardt disease” (THE TRUSTEES OF COLUMBIA UNIVERSITY IN THE CITY OF NEW YORK, priority 2012, dated 2016).
“Also recorded” adds a separate entry of the source.

Experiments:
insulin sensitivity = settings: mouse diabetes models; cited from earlier work
serum RBP4 = experiment: Serum RBP4 measurement (ELISA) in mice after oral dosing; assay type: in vivo, mouse
Method: The Abca4−/− mouse model manifests accelerated accumulation of lipofuscin in the RPE and is considered a pre-clinical efficacy model for a drug reducing lipofuscin accumulation.
Ten week-old Abca4 null mutant mice (129/SV×C57BL/6J) bred as previously described were used in the study. Abca4−/− (knockout) and Abca4+/+(wild-type) mice were raised under 12 h on-off cyclic lighting with an in-cage illuminance of 30-50 lux. For long-term oral dosing A1120 was formulated into Purina 5035 rodent chow at Research Diets, Inc. (New Brunswick, N.J.) to ensure consistent 30 mg/kg daily oral dosing. Animals were administered the A1120-containing chow for 6 weeks.
Blood samples were collected from a tail vein at days 0, 21 and 42 of the A1120 dosing. Whole blood was drawn into a centrifuge tube and was let clot at room temperature for 30 min followed by centrifugation at 2,000×g for 15 minutes at +4° C. to collect serum. Serum RBP4 was measured using the RBP4 (mouse/rat) dual ELISA kit (Enzo Life Sciences) following the manufacturer's instructions.
Blood samples collected from the treatment and control groups at baseline, Day 21 and Day 42 were used to measure serum RBP4 in order to correlate RBP4 levels with reduction in formation of lipofuscin bisretinoids. […] Levels of lipofuscin fluorophores (A2E, A2-DHP-PE and all-trans-retinal dimer-PE) were determined at the end of the 42-day treatment period using quantitative HPLC.

ERG b-wave = ERG b-wave after photobleaching; settings: in vivo
RBP4-TTR interaction = RBP4-TTR interaction (Homo sapiens, UniProt P02753); experiment: HTRF/TR-FRET assay for retinol-dependent RBP4-TTR interaction (1 μM retinol); assay type: biochemical; set-up: human RBP4 fragment (amino acids 19-201) was expressed in the Gold(DE3)pLysS E. coli strain; made in house; host or cells: E. coli Gold(DE3)pLysS (Stratagene), pMAL-c4x vector
Source text: Bacterially expressed MBP-RBP4 and untagged TTR were used in this assay. For the use in the TR-FRET assay the maltose binding protein (MBP)-tagged human RBP4 fragment (amino acids 19-201) was expressed in the Gold(DE3)pLysS E. coli strain (Stratagene) using the […] vector. Following cell lysis, recombinant RBP4 was purified from the soluble fraction using the ACTA FPLC system (GE Healthcare) equipped with the 5-ml the MBP Trap HP column. Human untagged TTR was purchased from Calbiochem. Untagged TTR was labeled directly with Eu^3+ Cryptate-NHS using the HTRF Cryptate Labeling kit from CisBio following the manufacturer's recommendations. HTRF assay was performed in white low volume 384 well plates (Greiner-Bio) in a final assay volume of 16 μl per well. The reaction buffer contained 10 mM Tris-HCl pH 7.5, 1 mM DTT, 0.05% NP-40, 0.05% Prionex, 6% glycerol, and 400 mM KF. Each reaction contained 60 nM MBP-RBP4 and 2 nM TTR-Eu along with 26.7 nM of anti-MBP antibody conjugated with d2 (Cisbio). Titration of test compounds in this assay was conducted in the presence of 1 μM retinol. All reactions were assembled in the dark under dim red light and incubated overnight at +4° C. wrapped in aluminum foil. TR-FRET signal was measured in the SpectraMax M5e Multimode Plate Reader (Molecular Device). Fluorescence was excited at 337 nm and two readings per well were taken: Reading 1 for time-gated energy transfer from Eu(K) to d2 (337 nm excitation, 668 nm emission, counting delay 75 microseconds, counting window 100 microseconds) and Reading 2 for Eu(K) time-gated fluorescence (337 nm excitation, 620 nm emission, counting delay 400 microseconds, counting window 400 microseconds). The TR-FRET signal was expressed as the ratio of fluorescence intensity: Flu665/Flu620×10,000.

[1] = Abca4−/− mice, 30 mg/kg daily oral in chow

Q: For `O=C(O)c1ccccc1NC(=O)N1CCC(c2ccccc2C(F)(F)F)CC1` [Compound 1, 2(4-(2-(trifluoromethyl)phenyl)piperidine-1-carboxamido)benzoic acid], which “Effect on insulin sensitivity” value (insulin sensitivity) is on record?
A: The value was “did not improve insulin sensitivity”.

Q: What about the “Serum RBP4 reduction at Week 3 / Day 21 compared with Day 0” value (serum RBP4; [1]) of the same molecule?
A: Its value is 64%.

Q: What about the “Serum RBP4 reduction at Week 6 / Day 42 compared with Day 0” value (serum RBP4; [1]) of the same molecule?
A: The value was 75%.

Q: What about the “Effect on serum RBP4 levels (in words)” value (serum RBP4; mouse, in vivo) of the same molecule?
A: Its value is “reduce serum REBP4 levels”.

Q: What about the “Reduction in the serum RBP4 level” value (serum RBP4; orally dosed for 3 weeks at 30 mg/kg, treated animals (Example 3)) of the same molecule?
A: Its value is about 70%.

Q: And the “Effect on ERG b-wave after photobleaching” value (ERG b-wave)?
A: Its value is “does not reduce ERG b-wave after photobleaching”.

Q: What about the “Antagonism of RBP4-TTR interaction in vitro (in words)” value (RBP4-TTR interaction) of the same molecule?
A: The value was “antagonize retinol-dependent RBP4-TTR interaction; also recorded: disrupt retinol-induced RBP4-TTR interaction; also recorded: antagonize RBP4-TTR interaction in vitro at biologically significant concentrations”.
